Blank lines part the entries; values can stand above or below the molecule they belong to.
Experiments:
[1] = biological target: G protein-coupled receptor kinase 4 (Homo sapiens) (UniProt P32298); assay: Selectivity interaction (Ambit KINOMEscan and KiNATiv profiling in Jurkat cells) EUB0000090b GRK4; format: cell-based; details: at 1 µM
[2] = biological target: T1, Dual specificity mitogen-activated protein kinase kinase 4 (Homo sapiens) (UniProt P45985); assay: Selectivity interaction (KinomeScan (DiscoverX)) EUB0000655a MAP2K4; details: at 10 µM
T1 sequence (whole entry): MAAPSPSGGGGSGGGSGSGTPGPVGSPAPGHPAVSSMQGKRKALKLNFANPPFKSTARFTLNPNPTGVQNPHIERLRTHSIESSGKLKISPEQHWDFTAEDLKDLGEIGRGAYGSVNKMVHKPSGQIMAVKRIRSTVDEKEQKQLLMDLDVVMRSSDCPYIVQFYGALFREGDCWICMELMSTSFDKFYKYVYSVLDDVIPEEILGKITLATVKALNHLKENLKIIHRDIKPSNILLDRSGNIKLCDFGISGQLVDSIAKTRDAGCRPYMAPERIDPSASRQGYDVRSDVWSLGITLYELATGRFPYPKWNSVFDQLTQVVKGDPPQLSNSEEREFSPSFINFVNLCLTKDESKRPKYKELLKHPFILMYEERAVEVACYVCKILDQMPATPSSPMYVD

[3] = biological target: Insulin receptor-related protein (Homo sapiens) (UniProt P14616); assay: Selectivity interaction (KinomeScan (DiscoverX)) EUB0001619a INSRR; details: at 1 µM
[4] = biological target: Homeodomain-interacting protein kinase 1 (Homo sapiens, UniProt Q86Z02); assay: Selectivity interaction (KinomeScan (DiscoverX)) EUB0001619a HIPK1; details: at 1 µM
[5] = biological target: Mitogen-activated protein kinase kinase kinase kinase 1 (Homo sapiens) (UniProt Q92918); assay: Selectivity interaction (KinomeScan (DiscoverX)) EUB0000045b MAP4K1
[6] = biological target: G protein-coupled receptor kinase 6 (Homo sapiens) (UniProt P43250); assay: Selectivity interaction (ProQinase) EUB0000171b GRK6
[7] = biological target: T2, Ephrin type-A receptor 8 (Homo sapiens) (UniProt P29322); assay: Selectivity interaction (ProQinase) EUB0000171b EPHA8
T2 sequence (whole entry): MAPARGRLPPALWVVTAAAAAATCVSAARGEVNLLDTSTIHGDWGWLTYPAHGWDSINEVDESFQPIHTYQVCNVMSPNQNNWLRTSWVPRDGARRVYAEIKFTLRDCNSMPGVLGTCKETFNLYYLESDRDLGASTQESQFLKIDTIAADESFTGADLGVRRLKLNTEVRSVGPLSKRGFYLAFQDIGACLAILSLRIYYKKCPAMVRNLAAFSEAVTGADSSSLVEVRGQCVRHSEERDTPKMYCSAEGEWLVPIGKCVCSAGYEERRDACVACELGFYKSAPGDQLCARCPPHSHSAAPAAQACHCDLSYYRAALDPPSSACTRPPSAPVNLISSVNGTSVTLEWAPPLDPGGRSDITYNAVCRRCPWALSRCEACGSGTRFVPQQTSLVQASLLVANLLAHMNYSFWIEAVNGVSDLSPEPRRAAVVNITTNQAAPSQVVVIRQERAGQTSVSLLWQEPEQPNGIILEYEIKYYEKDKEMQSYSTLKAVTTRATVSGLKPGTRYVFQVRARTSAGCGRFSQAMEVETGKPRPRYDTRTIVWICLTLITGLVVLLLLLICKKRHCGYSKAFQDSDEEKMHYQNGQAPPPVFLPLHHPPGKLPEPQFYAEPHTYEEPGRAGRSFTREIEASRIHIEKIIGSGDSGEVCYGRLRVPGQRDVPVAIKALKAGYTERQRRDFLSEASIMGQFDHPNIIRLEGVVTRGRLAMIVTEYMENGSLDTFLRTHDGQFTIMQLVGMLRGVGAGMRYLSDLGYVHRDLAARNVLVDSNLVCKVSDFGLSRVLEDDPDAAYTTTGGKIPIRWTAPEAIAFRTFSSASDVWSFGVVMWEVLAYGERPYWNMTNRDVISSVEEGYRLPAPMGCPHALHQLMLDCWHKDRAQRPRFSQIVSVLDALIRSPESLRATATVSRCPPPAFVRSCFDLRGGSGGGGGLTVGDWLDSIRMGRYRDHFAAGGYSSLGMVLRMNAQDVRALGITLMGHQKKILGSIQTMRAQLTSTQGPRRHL

[8] = biological target: T3, Ephrin type-B receptor 6 (Homo sapiens) (UniProt O15197); assay: Selectivity interaction (KinomeScan (DiscoverX)) EUB0001049a EPHB6; details: at 1 µM
T3 sequence (whole entry): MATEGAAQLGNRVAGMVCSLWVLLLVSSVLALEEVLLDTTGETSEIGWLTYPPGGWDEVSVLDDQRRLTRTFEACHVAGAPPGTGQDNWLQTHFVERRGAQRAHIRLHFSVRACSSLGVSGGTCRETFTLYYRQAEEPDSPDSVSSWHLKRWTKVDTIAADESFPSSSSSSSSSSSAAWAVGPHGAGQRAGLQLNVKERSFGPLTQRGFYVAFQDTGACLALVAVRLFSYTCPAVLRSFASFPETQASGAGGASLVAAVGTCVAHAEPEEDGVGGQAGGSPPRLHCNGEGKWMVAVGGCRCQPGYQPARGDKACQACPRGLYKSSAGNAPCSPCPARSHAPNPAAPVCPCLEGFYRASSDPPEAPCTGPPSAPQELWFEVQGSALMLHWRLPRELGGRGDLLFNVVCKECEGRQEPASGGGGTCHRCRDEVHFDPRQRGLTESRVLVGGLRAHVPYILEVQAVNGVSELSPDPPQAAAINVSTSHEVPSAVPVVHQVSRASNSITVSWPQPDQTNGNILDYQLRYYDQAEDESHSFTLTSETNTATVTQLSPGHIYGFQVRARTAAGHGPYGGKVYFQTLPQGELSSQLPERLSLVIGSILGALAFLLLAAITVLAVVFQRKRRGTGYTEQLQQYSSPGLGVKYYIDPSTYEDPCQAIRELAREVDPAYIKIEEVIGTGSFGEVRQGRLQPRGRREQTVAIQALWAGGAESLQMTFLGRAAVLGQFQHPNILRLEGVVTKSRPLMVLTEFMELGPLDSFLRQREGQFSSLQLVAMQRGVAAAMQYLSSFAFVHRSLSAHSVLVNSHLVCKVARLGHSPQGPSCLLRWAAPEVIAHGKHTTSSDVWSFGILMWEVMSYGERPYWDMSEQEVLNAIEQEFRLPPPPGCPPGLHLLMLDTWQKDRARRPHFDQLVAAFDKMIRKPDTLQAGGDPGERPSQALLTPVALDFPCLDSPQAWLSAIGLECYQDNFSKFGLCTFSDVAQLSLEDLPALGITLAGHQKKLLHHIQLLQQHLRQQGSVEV

[9] = biological target: Cyclin-dependent kinase 7 (Homo sapiens, UniProt P50613); assay: Selectivity interaction (KinomeScan (DiscoverX)) EUB0000666a CDK7; details: at 10 µM
[10] = biological target: Epithelial discoidin domain-containing receptor 1 (Homo sapiens) (UniProt Q08345); assay: Selectivity interaction (KinomeScan (DiscoverX)) EUB0000092b DDR1; details: at 10 µM
Epithelial discoidin domain-containing receptor 1 (Homo sapiens), sequence (Q08345 whole entry, the tested form may be a part): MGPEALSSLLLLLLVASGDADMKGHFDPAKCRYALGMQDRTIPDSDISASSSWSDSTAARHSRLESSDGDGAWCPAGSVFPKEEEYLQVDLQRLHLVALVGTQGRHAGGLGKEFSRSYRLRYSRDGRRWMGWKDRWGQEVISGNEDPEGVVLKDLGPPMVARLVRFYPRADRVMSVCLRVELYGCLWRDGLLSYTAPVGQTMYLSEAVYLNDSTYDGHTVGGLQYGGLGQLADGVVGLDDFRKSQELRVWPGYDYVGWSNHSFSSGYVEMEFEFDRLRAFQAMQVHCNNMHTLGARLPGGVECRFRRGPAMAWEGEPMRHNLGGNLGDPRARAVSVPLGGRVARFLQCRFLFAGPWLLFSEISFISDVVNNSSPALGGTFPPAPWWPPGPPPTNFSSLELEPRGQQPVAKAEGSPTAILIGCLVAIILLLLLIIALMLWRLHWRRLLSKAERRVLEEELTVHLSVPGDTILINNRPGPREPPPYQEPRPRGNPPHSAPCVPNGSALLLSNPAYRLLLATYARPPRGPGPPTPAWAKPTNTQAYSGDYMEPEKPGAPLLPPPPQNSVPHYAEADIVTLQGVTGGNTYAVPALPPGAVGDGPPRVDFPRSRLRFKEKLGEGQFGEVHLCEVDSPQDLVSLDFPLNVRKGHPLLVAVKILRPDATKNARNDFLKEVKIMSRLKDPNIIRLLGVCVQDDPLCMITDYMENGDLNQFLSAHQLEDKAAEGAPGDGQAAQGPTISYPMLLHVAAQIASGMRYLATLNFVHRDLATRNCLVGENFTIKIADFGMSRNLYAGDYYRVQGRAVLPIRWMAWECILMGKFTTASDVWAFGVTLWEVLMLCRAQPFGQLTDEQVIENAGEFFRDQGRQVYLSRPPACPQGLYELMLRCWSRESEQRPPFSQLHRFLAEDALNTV

Mitogen-activated protein kinase kinase kinase kinase 1 (Homo sapiens), sequence (Q92918 whole entry, looked up): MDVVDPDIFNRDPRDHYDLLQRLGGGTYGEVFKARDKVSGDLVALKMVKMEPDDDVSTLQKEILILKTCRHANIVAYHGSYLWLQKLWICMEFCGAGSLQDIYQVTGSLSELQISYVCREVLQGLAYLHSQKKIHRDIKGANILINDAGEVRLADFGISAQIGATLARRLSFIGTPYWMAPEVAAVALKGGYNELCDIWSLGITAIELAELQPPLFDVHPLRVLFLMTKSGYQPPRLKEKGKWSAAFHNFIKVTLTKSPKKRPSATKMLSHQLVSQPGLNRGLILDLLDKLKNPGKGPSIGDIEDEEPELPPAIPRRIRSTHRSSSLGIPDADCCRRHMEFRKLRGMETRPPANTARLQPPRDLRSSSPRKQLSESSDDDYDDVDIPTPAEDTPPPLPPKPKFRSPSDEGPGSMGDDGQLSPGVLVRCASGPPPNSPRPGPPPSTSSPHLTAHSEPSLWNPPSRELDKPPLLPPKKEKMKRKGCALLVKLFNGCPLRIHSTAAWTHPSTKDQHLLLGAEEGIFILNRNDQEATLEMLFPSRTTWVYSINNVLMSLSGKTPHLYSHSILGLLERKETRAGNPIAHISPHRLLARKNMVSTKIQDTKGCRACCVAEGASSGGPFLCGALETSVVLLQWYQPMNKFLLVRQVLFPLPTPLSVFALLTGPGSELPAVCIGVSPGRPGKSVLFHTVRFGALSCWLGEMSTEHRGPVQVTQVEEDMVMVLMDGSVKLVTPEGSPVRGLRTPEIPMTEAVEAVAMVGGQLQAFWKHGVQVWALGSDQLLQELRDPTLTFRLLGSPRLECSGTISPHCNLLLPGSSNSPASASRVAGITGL
G protein-coupled receptor kinase 6 (Homo sapiens), sequence (P43250 whole entry, looked up): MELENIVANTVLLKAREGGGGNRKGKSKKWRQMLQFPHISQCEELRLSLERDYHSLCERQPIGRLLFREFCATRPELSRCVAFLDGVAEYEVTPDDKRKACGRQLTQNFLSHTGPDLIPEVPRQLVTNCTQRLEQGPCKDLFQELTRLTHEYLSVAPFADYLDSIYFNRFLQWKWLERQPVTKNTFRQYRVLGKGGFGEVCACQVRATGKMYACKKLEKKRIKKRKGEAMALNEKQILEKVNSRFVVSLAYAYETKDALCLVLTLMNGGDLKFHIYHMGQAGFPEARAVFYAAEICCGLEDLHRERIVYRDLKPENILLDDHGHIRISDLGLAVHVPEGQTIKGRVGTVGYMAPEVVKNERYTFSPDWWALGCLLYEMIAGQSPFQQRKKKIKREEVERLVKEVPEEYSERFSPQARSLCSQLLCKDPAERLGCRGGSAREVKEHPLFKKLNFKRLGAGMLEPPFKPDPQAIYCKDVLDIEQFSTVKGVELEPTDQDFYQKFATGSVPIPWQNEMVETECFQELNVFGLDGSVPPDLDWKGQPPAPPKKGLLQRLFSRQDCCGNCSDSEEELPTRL
G protein-coupled receptor kinase 4 (Homo sapiens), sequence (P32298 whole entry, looked up): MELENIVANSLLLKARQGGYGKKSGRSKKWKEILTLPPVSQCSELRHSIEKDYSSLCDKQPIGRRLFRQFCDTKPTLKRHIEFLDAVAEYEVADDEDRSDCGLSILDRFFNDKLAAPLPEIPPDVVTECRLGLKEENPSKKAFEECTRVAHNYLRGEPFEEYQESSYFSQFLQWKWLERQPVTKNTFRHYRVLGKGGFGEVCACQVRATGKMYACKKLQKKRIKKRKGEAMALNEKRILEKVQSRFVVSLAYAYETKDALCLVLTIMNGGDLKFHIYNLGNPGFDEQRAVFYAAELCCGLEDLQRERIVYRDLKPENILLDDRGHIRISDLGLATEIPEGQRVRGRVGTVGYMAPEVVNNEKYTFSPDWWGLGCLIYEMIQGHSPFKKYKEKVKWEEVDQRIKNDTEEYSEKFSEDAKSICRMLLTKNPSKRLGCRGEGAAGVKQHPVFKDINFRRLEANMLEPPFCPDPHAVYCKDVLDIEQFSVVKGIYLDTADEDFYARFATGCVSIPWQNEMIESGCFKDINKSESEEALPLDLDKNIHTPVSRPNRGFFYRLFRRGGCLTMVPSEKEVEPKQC
Homeodomain-interacting protein kinase 1, sequence (Q86Z02 whole entry, looked up): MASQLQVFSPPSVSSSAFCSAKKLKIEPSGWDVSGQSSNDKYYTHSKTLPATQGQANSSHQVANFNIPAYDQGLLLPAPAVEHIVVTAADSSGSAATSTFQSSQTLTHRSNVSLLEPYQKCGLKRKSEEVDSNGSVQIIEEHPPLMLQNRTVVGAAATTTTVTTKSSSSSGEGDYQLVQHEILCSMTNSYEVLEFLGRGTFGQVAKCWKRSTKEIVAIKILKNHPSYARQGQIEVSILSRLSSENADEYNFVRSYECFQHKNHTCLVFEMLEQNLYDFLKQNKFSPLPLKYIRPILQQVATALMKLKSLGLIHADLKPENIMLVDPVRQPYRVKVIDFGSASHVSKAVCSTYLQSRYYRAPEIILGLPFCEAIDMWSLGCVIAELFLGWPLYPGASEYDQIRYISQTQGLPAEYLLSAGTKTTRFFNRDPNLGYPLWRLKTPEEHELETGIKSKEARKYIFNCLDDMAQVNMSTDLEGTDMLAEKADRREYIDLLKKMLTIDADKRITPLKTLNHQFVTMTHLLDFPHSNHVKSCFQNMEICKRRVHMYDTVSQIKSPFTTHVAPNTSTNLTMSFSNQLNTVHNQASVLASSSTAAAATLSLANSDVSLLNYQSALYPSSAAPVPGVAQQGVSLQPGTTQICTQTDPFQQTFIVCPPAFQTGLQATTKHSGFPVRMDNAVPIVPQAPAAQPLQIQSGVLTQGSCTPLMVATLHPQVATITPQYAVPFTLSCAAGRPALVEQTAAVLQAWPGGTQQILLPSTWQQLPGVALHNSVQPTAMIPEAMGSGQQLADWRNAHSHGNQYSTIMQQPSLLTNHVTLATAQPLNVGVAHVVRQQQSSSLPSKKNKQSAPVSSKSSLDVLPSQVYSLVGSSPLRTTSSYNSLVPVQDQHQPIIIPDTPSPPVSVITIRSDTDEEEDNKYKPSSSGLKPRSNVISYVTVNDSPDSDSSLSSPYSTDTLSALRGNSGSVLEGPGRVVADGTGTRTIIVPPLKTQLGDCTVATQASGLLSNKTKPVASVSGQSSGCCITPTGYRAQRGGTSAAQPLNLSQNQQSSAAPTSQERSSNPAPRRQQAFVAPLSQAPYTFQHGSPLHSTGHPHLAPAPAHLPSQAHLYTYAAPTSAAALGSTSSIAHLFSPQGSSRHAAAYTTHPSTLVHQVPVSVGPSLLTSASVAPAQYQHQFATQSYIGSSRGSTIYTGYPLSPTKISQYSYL
Cyclin-dependent kinase 7, sequence (P50613 whole entry, the tested form may be a part): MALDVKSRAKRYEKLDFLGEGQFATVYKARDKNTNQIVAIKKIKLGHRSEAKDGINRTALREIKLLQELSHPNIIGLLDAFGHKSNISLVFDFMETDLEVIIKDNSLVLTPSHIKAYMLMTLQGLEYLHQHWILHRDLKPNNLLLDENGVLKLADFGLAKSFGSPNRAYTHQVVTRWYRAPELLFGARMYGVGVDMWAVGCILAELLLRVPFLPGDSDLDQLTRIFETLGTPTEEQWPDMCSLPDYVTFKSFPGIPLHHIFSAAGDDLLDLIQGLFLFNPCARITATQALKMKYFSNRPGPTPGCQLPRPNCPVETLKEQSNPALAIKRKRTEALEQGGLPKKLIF

SMILES: CN(C)C/C=C/C(=O)Nc1ccc(C(=O)N2CCCC(Nc3ncc(Cl)c(-c4c[nH]c5ccccc45)n3)C2)cc1 (stereo not drawn)
% of control [1]: 99%

SMILES: CN(C)CCOc1ccc(-c2nc(-c3ccncc3)c(-c3ccc4c(c3)CC/C4=N\O)[nH]2)cc1
% of control [2]: 100%

SMILES: N#Cc1cccc(-c2c[nH]c3ncnc(N4CCOCC4)c23)c1
% of control [3]: 100%
% of control [4]: 77%

SMILES: C=CC(=O)Nc1cc(-n2c(=O)ccc3cnc4ccc(-c5ccc(NS(C)(=O)=O)cc5)cc4c32)ccc1C
% of control ([5]; at 1 µM): 100%
% of control ([5]; at 10 µM): 94%

% of control ([6]; at 1 µM): 88%
% of control ([6]; at 5 µM): 90%
% of control ([7]; at 1 µM): 96%
% of control ([7]; at 5 µM): 99%
SMILES: C=CC(=O)Nc1cccc(C(=O)Nc2ccc(Nc3cc(-c4[nH]c(SC)nc4C)ccn3)cc2)c1

SMILES: COc1cc(Nc2nc(C)cc(-c3cnn4nc(OC)ccc34)n2)cc(C(F)(F)F)c1
% of control [8]: 78%

SMILES: O=C(NOC[C@H](O)CO)c1ccc(F)c(F)c1Nc1ccc(I)cc1F
% of control [9]: 83%

SMILES: CCC(=O)N1CCN(c2ccc(-n3c(=O)ccc4cnc5ccc(-c6cnc7ccccc7c6)cc5c43)cc2C(F)(F)F)CC1
% of control [10]: 100%
